Data as given in patent US8481553B2, “Antimetastatic compounds” (Brigham Young University, priority 2010, dated 2013).

Tested on: MDCK cells
Assay: HGF-induced epithelial-mesenchymal transition / migration of MDCK cells on transwell filters (crystal violet densitometry)
Assay type: cell-based
Details: test compound 10 μM, then HGF, 24 hours, percentage value like the untreated controls (unstimulated cells = maximal effect, HGF treated cells without compound = nil effect); for inhibition at 10 µM: Canis lupus familiaris, MDCK
Description: MDCK cells were seeded at confluency into the wells of a transwell filter in DMEM with 10% fetal bovine serum. Cells were cultured for 24 hours. Test compounds, dissolved in DMSO, were added to each test well to a 10 μM final concentration, and then hepatocyte growth factor (HGF) was then added. The MDCK cells were cultured for 24 hours. Concurrently, controls treated with and without HGF and with no test compounds were also prepared.
After post-HGF addition culturing, transwell filters were prepared by repeated washing using ice cold PBS. The cells were then fixed with paraformaldehyde (3.7%) on ice for 15 minutes to the filters. After fixation, the transwell filters were washed repeatedly with PBS followed by staining with crystal violet for 15 minutes. The transwell filters were washed again with distilled water.
The upper surface of the transwell filters were swabbed using a cotton-tipped probe. The filters were photographed using a gel documentation system. Densitometry measurements were made on the test samples and compared with control samples.

Cc1cc(C)c(/C=N/NC(=O)COc2ccccc2)c(C)c1 [Compound 21]
Assay Value: <5%

COc1cc(/C=C/c2ccc3cccc(O)c3n2)ccc1OCc1ccccc1 [Compound B-32]
inhibition at 10 µM: 91.8%

N#Cc1ccccc1OCC(=O)N/N=C/c1ccc(Cl)cc1 [Compound 7]
inhibition at 10 µM: 86.8%

CCOc1ccccc1OCC(=O)N/N=C/c1ccc(O)cc1O [Compound 4]
inhibition at 10 µM: 32.3%

COc1cc(/C=C/c2ccc3cccc(OCc4ccccc4)c3n2)ccc1OC(C)=O [Compound B-18]
inhibition at 10 µM: 100%

Cc1noc(C)c1CSc1nc2sc3c(c2c(=O)n1-c1ccccc1)CCC3 [Compound A-6]
Assay Value: 55.1%

CCOC(=O)/C=C/CSc1nc2sc3c(c2c(=O)[nH]1)CCCC3 [Compound A-15]
inhibition at 10 µM: 71.3%

Oc1cccc2ccc(/C=C/c3ccc(OCc4ccccc4)cc3)nc12 [Compound B-19]
Assay Value: 91.0%

COc1ccccc1/C=N/NC(=O)COc1c(C)cc(C)cc1C [Compound 18]
Assay Value: <5%

COc1ccc(/C=N/NC(=O)COc2ccccc2C)cc1 [Compound 19]
Assay Value: <5%

O=C1c2cccc3cccc(c23)C(=O)N1CCCc1nc2sc3c(c2c(=O)[nH]1)CCCC3 [Compound A-16]
inhibition at 10 µM: 70.1%

COc1cccc2ccc(/C=C/c3ccc(Br)cc3)nc12 [Compound B-11]
inhibition at 10 µM: 61.4%

CCOc1cccc(/C=C/c2ccc3cccc(OC)c3n2)c1 [Compound B-10]
inhibition at 10 µM: 76.1%

O=C(COc1ccccc1Br)N/N=C/c1cccc(Br)c1 [Compound 28]
Assay Value: <5%

Cc1noc(C)c1CSc1nc2sc3c(c2c(=O)n1-c1ccccc1)CCCC3 [Compound A-7]
inhibition at 10 µM: 31.3%

O=c1[nH]c(SCc2ccccc2)nc2sc3c(c12)CCc1ccccc1-3 [Compound A-5]
inhibition at 10 µM: 77.3%

Oc1cccc2ccc(/C=C/c3ccc4c(c3)OCO4)nc12 [Compound B-30]
inhibition at 10 µM: 94.4%

C=CCc1ccccc1OCC(=O)N/N=C/c1cccc(Oc2ccccc2)c1 [Compound 3]
inhibition at 10 µM: 70.9%

CCOc1cc(/C=C/c2ccc3cccc(OC(=O)CC)c3n2)cc(Br)c1OC [Compound B-13]
inhibition at 10 µM: 62.2%

Cc1noc(C)c1CSc1nc2[nH]ncc2c(=O)n1-c1ccccc1 [Compound A-10]
inhibition at 10 µM: 63.1%

O=C(COc1cccc(Br)c1)N/N=C/c1ccc(Cl)cc1 [Compound 35]
Assay Value: <5%

COc1cccc(/C=C/c2ccc3cccc(O)c3n2)c1 [Compound B-34]
inhibition at 10 µM: 51.8%

COc1cc(/C=C/c2ccc3cccc(O)c3n2)cc(OC)c1O [Compound B-36]
inhibition at 10 µM: < 5%

C=C(C)CSc1nc2sc3c(c2c(=O)[nH]1)CCCC3 [Compound A-14]
inhibition at 10 µM: 100%

CC1CCc2c(sc3nc(SCC(=O)N4CCOCC4)n(Cc4ccccc4)c(=O)c23)C1 (centres unmarked) [Compound A-20]
Assay Value: <5%

Oc1c(Br)cc(Cl)cc1/C=C/c1ccc2cccc(O)c2n1 [Compound B-27]
inhibition at 10 µM: 100%

COc1cc(OC)c(OC)cc1/C=C/c1ccc2cccc(OC)c2n1 [Compound B-12]
inhibition at 10 µM: 50.6%

N#Cc1ccccc1OCC(=O)N/N=C/c1c(Cl)cccc1Cl [Compound 13]
inhibition at 10 µM: 86%

COc1cc(/C=C/c2ccc3cccc(OC)c3n2)cc(Br)c1OC [Compound B-9]
inhibition at 10 µM: > 5%

CCC(=O)Oc1c(OC)cc(/C=C/c2ccc3cccc(OC(=O)CC)c3n2)cc1OC [Compound B-24]
inhibition at 10 µM: 98.1%

Cc1ccccc1OCC(=O)N/N=C/c1ccc(F)cc1 [Compound 26]
Assay Value: <5%

COc1cc(/C=C/c2ccc3cccc(OCc4ccccc4Cl)c3n2)cc(OC)c1OC [Compound B-17]
inhibition at 10 µM: 100%

Cc1ccc(C)c(OCC(=O)N/N=C/c2ccc(CC(=O)O)cc2)c1C [Compound 25]
Assay Value: <5%

O=C1c2cccc3cccc(c23)C(=O)N1CCc1nc2sc3c(c2c(=O)[nH]1)CCCC3 [Compound A-3]
inhibition at 10 µM: 73.4%

Cc1ccc(OCC(=O)N/N=C/c2ccccc2)cc1 [Compound 20]
Assay Value: <5%

COc1cc(Cl)cc(/C=C/c2ccc3cccc(OC)c3n2)c1OC(C)=O [Compound B-22]
inhibition at 10 µM: 98.1%

COc1cc(/C=C/c2ccc3cccc(OC)c3n2)cc(OC)c1OC [Compound B-1]
inhibition at 10 µM: 96.8%

COc1ccc(/C=C/c2ccc3cccc(O)c3n2)cc1C [Compound B-33]
inhibition at 10 µM: 90.7%

O=c1[nH]c(SC/C=C/c2ccccc2)nc2sc3c(c12)CCCC3 [Compound A-13]
inhibition at 10 µM: 90.5%

COc1cc(Cl)cc(/C=C/c2ccc3cccc(O)c3n2)c1OC [Compound B-28]
inhibition at 10 µM: 100%

C=CCOc1ccccc1/C=N/NC(=O)COc1ccccc1CC=C [Compound 9]
inhibition at 10 µM: 49.5%

O=C(COc1ccc(Br)cc1)N/N=C/c1ccc(Cl)cc1 [Compound 38]
Assay Value: <5%

CC1CCN(C(=O)CSc2nc3sc4c(c3c(=O)[nH]2)CCCC4)CC1 [Compound A-25]
Assay Value: <5%

O=C(CSc1nc2sc3c(c2c(=O)n1-c1ccccc1)CCCC3)c1cccs1 [Compound A-17]
Assay Value: <5%

COc1ccccc1/C=N/NC(=O)COc1ccccc1OC [Compound 32]
Assay Value: <5%

O=c1[nH]c(NCc2ccccc2)nc2sc3c(c12)CCCC3 [Compound A-2]
inhibition at 10 µM: 92.2%

COc1cccc2ccc(/C=C/c3cc(I)ccc3OC(C)=O)nc12 [Compound B-21]
inhibition at 10 µM: 72.5%

Cc1nc(CSc2nc3[nH]ncc3c(=O)n2-c2ccccc2)cs1 [Compound A-8]
inhibition at 10 µM: 49.6%

CC1CCc2c(sc3nc(Cc4ccccc4)[nH]c(=O)c23)C1 (centres unmarked) [Compound A-18]
Assay Value: <5%

N#Cc1ccccc1OCC(=O)N/N=C/c1ccc([N+](=O)[O-])cc1 [Compound 11]
inhibition at 10 µM: 83.7%

COc1cccc2ccc(/C=C/c3cccc([N+](=O)[O-])c3)nc12 [Compound B-20]
inhibition at 10 µM: 92.4%

COc1cc(Br)cc(/C=C/c2ccc3cccc(OC)c3n2)c1OC [Compound B-23]
inhibition at 10 µM: 72.8%

O=c1[nH]c(CCc2ccccc2)nc2sc3c(c12)CCCC3 [Compound A-1]
inhibition at 10 µM: 96.9%

Oc1cccc2ccc(/C=C/c3ccc(Cl)c(Cl)c3)nc12 [Compound B-8]
inhibition at 10 µM: > 5%

N#Cc1ccccc1OCC(=O)N/N=C/c1ccc(Cl)cc1Cl [Compound 8]
inhibition at 10 µM: 55.1%

Cc1ccc(/C=N/NC(=O)COc2cccc(Br)c2)c(C)c1 [Compound 36]
Assay Value: <5%

CCOc1cc(/C=C/c2ccc3cccc(O)c3n2)ccc1OC [Compound B-2]
inhibition at 10 µM: > 5%

C=CCc1ccccc1OCC(=O)N/N=C/c1ccc(C)cc1C [Compound 1]
inhibition at 10 µM: 97%

COc1ccccc1OCC(=O)N/N=C/c1ccc(Cl)cc1 [Compound 33]
Assay Value: <5%

N#Cc1ccccc1OCC(=O)N/N=C/c1cccc(Br)c1 [Compound 12]
inhibition at 10 µM: 67.7%

O=C(CSc1nc2sc3c(c2c(=O)n1Cc1ccccc1)CCCC3)N1CCCC1 [Compound A-21]
Assay Value: <5%

N#Cc1ccccc1OCC(=O)N/N=C/c1ccccc1O [Compound 5]
inhibition at 10 µM: 41.1%

COc1ccc(/C=C/c2ccc3cccc(OC)c3n2)cc1Cl [Compound B-6]
inhibition at 10 µM: > 5%

CCOc1cccc(/C=C/c2ccc3cccc(OC)c3n2)c1OC(C)=O [Compound B-15]
inhibition at 10 µM: 53.1%

COc1cc(/C=C/c2ccc3cccc(OC)c3n2)ccc1OC(C)=O [Compound B-7]
inhibition at 10 µM: > 5%

Cc1ccc(OCC(=O)N/N=C/c2ccc(C(=O)O)cc2)c(C)c1 [Compound 22]
Assay Value: <5%

O=C(O)CCc1nc2sc3c(c2c(=O)[nH]1)CCCC3 [Compound A-12]
inhibition at 10 µM: 100%

Cc1cc(C)c(OCC(=O)N/N=C/c2ccccc2)c(C)c1 [Compound 17]
Assay Value: <5%

COc1cc(/C=C/c2ccc3cccc(OCc4ccc(Cl)cc4)c3n2)cc(OC)c1OC(C)=O [Compound B-25]
inhibition at 10 µM: 78.8%

COc1c(OC(C)=O)ccc(/C=C/c2ccc3cccc(OC)c3n2)c1[N+](=O)[O-] [Compound B-14]
inhibition at 10 µM: 61.1%

COc1cc(/C=C/c2ccc3cccc(O)c3n2)cc(OC)c1OC [Compound B-35]
inhibition at 10 µM: < 5%

CCOc1ccccc1OCC(=O)N/N=C/c1ccc(O)c(O)c1 [Compound 15]
inhibition at 10 µM: 72.8%

COc1cc(/C=C/c2ccc3cccc(O)c3n2)ccc1O [Compound B-3]
inhibition at 10 µM: > 5%

O=C(COc1ccccc1Br)N/N=C/c1ccccc1Br [Compound 37]
Assay Value: <5%

Oc1cccc2ccc(/C=C/c3ccc(OC4CCCC4)cc3)nc12 [Compound B-16]
Assay Value: 100%

Cc1ccc(/C=N/NC(=O)COc2ccccc2Br)c(C)c1 [Compound 34]
Assay Value: <5%

C=CCc1ccccc1OCC(=O)N/N=C/c1cccc(CC=C)c1O [Compound 10]
inhibition at 10 µM: 44.8%

COc1cc(/C=C/c2ccc3cccc(OC(C)=O)c3n2)ccc1O [Compound B-29]
inhibition at 10 µM: 94.2%

N#Cc1ccccc1OCC(=O)N/N=C/c1ccccc1 [Compound 6]
inhibition at 10 µM: 44.2%

Cc1cccc(OCC(=O)N/N=C/c2ccc(O)cc2)c1C [Compound 23]
Assay Value: <5%

O=C(COc1ccc2ccccc2c1)N/N=C/c1ccccc1Br [Compound 30]
Assay Value: <5%

O=C(CSc1nc2sc3c(c2c(=O)n1Cc1ccccc1)CCCC3)N1CCCC1 [Compound A-9]
inhibition at 10 µM: 50%

CC1CCCCN1C(=O)CSc1nc2sc3c(c2c(=O)n1-c1ccccc1)CCC3 (centres unmarked) [Compound A-22]
Assay Value: <5%
